# Columns and labels:
# [1] = biological target: T1, dopaminergic receptors D2 (Oryctolagus cuniculus, UniProt G1T1Q0); assay: D2 activity in the rabbit ear artery (REA), electrically stimulated isolated artery rings; conditions: rabbit central ear artery rings, electrically stimulated (10 Hz); cumulative administration; agonistic activity at peak of effect; read-out: D2 activity (REA) expressed as pD2, i.e. -logEC50 (converted)
# T1 construct: The central ear artery was cut into 3 mm-rings; from tissue; host or cells: central ear artery rings of male New Zealand rabbits
# T1 sequence (G1T1Q0 1-443): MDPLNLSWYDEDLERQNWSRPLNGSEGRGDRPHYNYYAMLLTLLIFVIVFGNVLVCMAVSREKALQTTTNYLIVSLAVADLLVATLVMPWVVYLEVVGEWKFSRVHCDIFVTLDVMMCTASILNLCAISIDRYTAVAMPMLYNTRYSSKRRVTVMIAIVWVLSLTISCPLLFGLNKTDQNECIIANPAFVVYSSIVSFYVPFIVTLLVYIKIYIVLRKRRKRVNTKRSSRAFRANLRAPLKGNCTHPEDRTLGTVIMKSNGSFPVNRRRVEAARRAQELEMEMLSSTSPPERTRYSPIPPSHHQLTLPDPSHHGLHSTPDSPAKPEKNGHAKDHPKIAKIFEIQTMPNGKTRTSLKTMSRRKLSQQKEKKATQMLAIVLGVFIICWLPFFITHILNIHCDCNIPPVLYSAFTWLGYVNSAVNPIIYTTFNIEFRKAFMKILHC
# Procedure: Evaluation of the D2 activity in the rabbit ear artery (REA)
# Artery rings were prepared following the method described by Steinsland et al., Science, 1978, 443, 199, modified as follows.
# Male New Zealand rabbits (weighing 2.5-3 Kg) were sacrificed by a pentobarbital intravenous injection and bled. The central ear artery was cut into 3 mm-rings.
# The samples were placed into a 25 ml-bath containing a Krebs solution (mM/l): sodium chloride 118, potassium chloride 4.7, calcium chloride 2.5, magnesium sulphate 1.2, sodium hydrocarbonate 25, potassium biphosphate 1.2, glucose 11.1, balanced with oxygen 95%/carbon dioxide 5% and maintained at 35±1° C. The Krebs solution was added with EDTA (10 μM) to prevent the cathecolamine oxidation, with desipramine (0,1 μM) and corticosterone (30 μM) to stop the neuronal and extraneuronal cathecolamine re-uptake.
# The samples were electrically stimulated (10 Hz, 1 msec., 40-80 mA, 500 msec long) at intervals of 5 minutes.
# (§1) The tested compounds were cumulatively administered.
# (§2) Dopamine was used as reference compound.
# [2] = biological target: dopaminergic receptors D1 (Oryctolagus cuniculus, UniProt G1SML2); assay: D1 activity on the rabbit splenic artery (RSA), isolated artery rings contracted with U46619; conditions: cumulative administration, agonistic activity at peak of effect
# dopaminergic receptors D1, sequence (G1SML2 1-448): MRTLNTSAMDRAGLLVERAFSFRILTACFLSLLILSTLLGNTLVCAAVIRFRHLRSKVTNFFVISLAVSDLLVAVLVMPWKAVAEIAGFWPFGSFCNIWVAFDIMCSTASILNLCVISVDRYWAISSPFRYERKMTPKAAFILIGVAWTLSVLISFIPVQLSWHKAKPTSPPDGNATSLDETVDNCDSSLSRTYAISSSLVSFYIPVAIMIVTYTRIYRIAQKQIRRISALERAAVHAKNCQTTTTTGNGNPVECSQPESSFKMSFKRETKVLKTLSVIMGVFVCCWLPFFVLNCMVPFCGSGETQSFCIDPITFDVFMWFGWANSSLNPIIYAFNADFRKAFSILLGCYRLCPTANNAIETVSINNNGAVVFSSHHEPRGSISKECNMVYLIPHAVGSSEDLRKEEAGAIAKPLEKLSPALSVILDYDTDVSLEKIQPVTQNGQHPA
# Procedure: Tests of dopaminergic activity on isolated tissues Evaluation of the D1 activity on the rabbit splenic artery (RSA)
# Artery rings were prepared according to Semeraro et al., Naunyn. Schnied. Arch. […] These were contracted with U46619 (9,11-dideoxy-11α, 9α -epoxy-methanprostaglandine F2 α) at a submaximal concentration of […].
# as §1, §2
SMILES,EC50 [1] [nM],"D1 activity (RSA) expressed as pD2, i.e. -logEC50 [2]"
"NCCc1ccc(O)c(O)c1 [Dopamine, reference compound]",15.8,–
"CCCN(CCC)[C@H]1CCc2c(ccc(O)c2CO)C1.O=C(O)/C=C\C(=O)O [Example 6, (S)-N,N-dipropyl-6-hydroxy-5-hydroxymethyl-1,2,3,4-tetrahydro-2-naphthylamine maleate]",10,6.0
